Measurements reported in patent US20060149100A1, “Process for separating and recovering 3-hydroxypropionic acid and acrylic acid” (priority 2003, published 2006).

Experiments:
[1] = Extraction of acrylic acid and 3-hydroxypropionic acid from aqueous stock solutions using various extractants; conditions: 22° C.; for Partition Coefficient, D 3HP / Partition Coefficient, D AA: extractant phase/aqueous phase
Source text: In this Example, there were utilized five (5) aqueous stock solutions. The aqueous stock solutions comprise 3-hydroxypropionic acid and acrylic acid. In each of the five aqueous stock solutions, the concentration of 3-hydroxypropionic acid is approximately two times higher than the concentration of the acrylic acid.
In carrying out the following extractions of 3-hydroxypropionic acid and acrylic acid from aqueous stock solutions comprising 3-hydroxypropionic acid and acrylic acid, the following organic extractants were used: • a. Decanol • b. Methyl isobutyl ketone (MiBK) • c. Isopropyl ether • d. Methyl acrylate • e. Methyl propionate • f. Methylene chloride (CH2Cl2) • g. Toluene • h. Isopropyl acetate • i. Ethyl acetate • j. 50/50 wt % Tributyl phosphate (TBP) and ISOPAR-K isoparaffinic hydrocarbon available from Exxon Mobil Corporation The extraction procedure utilized in the Examples herein for separating and recovering 3-hydroxypropionic acid and acrylic acid from aqueous solutions comprising 3-hydroxypropionic acid and acrylic acid is set forth below.
1. To a 15 ml centrifuge tube 5 ml of an acid stock solution and an extractant were added. Masses of the empty centrifuge tube, the aqueous solution and extractant were recorded.
2. The tube was placed on a platform shaker and the contents in the tube were mixed at 230 rpm for 30 minutes at 22° C. (rpm designates revolutions per minute).
3. At the end of mixing, the tube was centrifuged at 4500 rpm for 5 minutes.
4. The volumes of the aqueous and extractant phases in the tube were recorded.
5. The aqueous phase was separated from the extractant phase and the masses of both phases were recorded.
6. The acrylic acid and the 3-hydroxypropionic acid in the aqueous solution were analyzed by HPLC.
7. The concentrations of acrylic acid and 3-hydroxypropionic acid in the organic extractant were calculated by subtracting the concentrations of acrylic acid and 3-hydroxypropionic acid in the aqueous phase from the initial concentration in the stock solution.

[2] = Distillation of organic extractant from acrylic acid solution in the presence of water; type: physicochemical; conditions: distillation at about 100 mm Hg, room temperature; 18.5 g isopropyl ether, 3 g acrylic acid, 9 g water
Procedure: In this Example, there is shown the process for separating and recovering acrylic acid from a solution comprising acrylic acid and an organic extractant that has a boiling point lower than 100° C. The process involves distillation of the solution, in the presence of water, to distill the organic extractant having a boiling point lower than 100° C., resulting in an aqueous acrylic acid solution.
More particularly, 18.5 grams of isopropyl ether, 3 grams of acrylic acid, and 9 grams of distilled water were introduced into a 100 ml round bottom flask. The organic extractant, isopropyl ether, that has a boiling point of 68° C. at ambient temperature, was then distilled from the solution. The distillation of the isopropyl ether organic extractant, was achieved by applying to the flask, containing the solution of acrylic acid, organic extractant and water, a reduced pressure of about 100 mm Hg, at room temperature (about 20-24° C.). The distillation was completed in about 5 minutes. The resulting isopropyl ether distillate that was collected, and the remaining aqueous solution in the flask, were weighed, and the concentration of acrylic acid in both the isopropyl ether distillate and in the aqueous solution, were determined by means of titration. The amount of acrylic acid that remained in the flask as the aqueous solution was 91%. […]

[3] = Aqueous Stock Solution No. 1 (0.67 wt % AA, 1.34 wt % 3HP)
[4] = Aqueous Stock Solution No. 5 (12.51 wt % AA, 25.05 wt % 3HP)
[5] = Aqueous Stock Solution No. 2 (3.33 wt % AA, 6.67 wt % 3HP)
[6] = Aqueous Stock Solution No. 3 (6.67 wt % AA, 13.34 wt % 3HP)
[7] = Aqueous Stock Solution No. 4 (9.99 wt % AA, 19.98 wt % 3HP)

Compound	Acid in Aqueous Phase, wt % 3HP [1, 3] [wt %]	Acid in Aqueous Phase, wt % AA [1, 3] [wt %]	Acid in Extractant Phase, wt % 3HP [1, 3] [wt %]	Acid in Extractant Phase, wt % AA [1, 3] [wt %]	Separation Factor, S AA/3HP [1, 3]	Partition Coefficient, D 3HP [1, 3]	Partition Coefficient, D AA [1, 3]	Acid in Aqueous Phase, wt % 3HP [1, 4] [wt %]	Acid in Aqueous Phase, wt % AA [1, 4] [wt %]	Acid in Extractant Phase, wt % 3HP [1, 4] [wt %]	Acid in Extractant Phase, wt % AA [1, 4] [wt %]	Separation Factor, S AA/3HP [1, 4]	Partition Coefficient, D 3HP [1, 4]	Partition Coefficient, D AA [1, 4]	further results
C=CC(=O)OC [Methyl Acrylate, Methyl acrylate]	1.24	0.25	0.07	0.45	31.01	0.06	1.82	21.57	4.51	6.70	8.13	5.80	0.31	1.80	–
Cc1ccccc1 [Toluene]	1.42	0.69	–	–	–	–	–	26.72	10.57	–	2.47	–	–	–	–
CC(=O)CC(C)C [MiBK, Methyl isobutyl ketone]	1.32	0.23	0.03	0.59	108.82	–	–	24.17	4.11	5.46	9.92	10.69	–	–	–
CC(=O)OC(C)C [Isopropyl Acetate, Isopropyl acetate]	1.28	0.24	0.06	0.52	43.36	0.05	2.19	25.35	4.42	3.82	8.95	13.43	0.15	2.02	–
CCC(=O)OC [Methyl Propionate, Methyl propionate]	1.22	0.24	0.06	0.51	44.43	0.05	2.13	22.63	4.54	5.54	8.55	7.69	0.25	1.88	–
ClCCl [CH2Cl2, Methylene chloride]	1.39	0.61	–	0.04	–	–	0.06	25.05	7.84	0.53	3.72	22.45	0.02	0.48	–
CCCCCCCCCCO [Decanol]	1.37	0.31	0.03	0.47	77.18	–	–	25.90	5.94	3.21	8.20	11.13	–	–	–
CCOC(C)=O [Ethyl Acetate, Ethyl acetate, reference compound]	1.13	0.20	0.20	0.59	16.55	–	–	21.16	4.22	8.68	8.07	4.66	–	–	Acid in Aqueous Phase, wt % 3HP [1, 5]: 5.77 wt %; Acid in Aqueous Phase, wt % AA [1, 5]: 0.97 wt %; Acid in Extractant Phase, wt % 3HP [1, 5]: 1.21 wt %; Acid in Extractant Phase, wt % AA [1, 5]: 2.87 wt %; Separation Factor, S AA/3HP [1, 5]: 14.18; Acid in Aqueous Phase, wt % 3HP [1, 6]: 11.38 wt %; Acid in Aqueous Phase, wt % AA [1, 6]: 2.02 wt %; Acid in Extractant Phase, wt % 3HP [1, 6]: 3.09 wt %; Acid in Extractant Phase, wt % AA [1, 6]: 5.36 wt %; Separation Factor, S AA/3HP [1, 6]: 9.79; Acid in Aqueous Phase, wt % 3HP [1, 7]: 17.08 wt %; Acid in Aqueous Phase, wt % AA [1, 7]: 3.18 wt %; Acid in Extractant Phase, wt % 3HP [1, 7]: 5.17 wt %; Acid in Extractant Phase, wt % AA [1, 7]: 7.53 wt %; Separation Factor, S AA/3HP [1, 7]: 7.81
CC(C)OC(C)C [Isopropyl Ether, Isopropyl ether]	1.30	0.36	0.04	0.44	40.59	–	–	25.72	5.92	1.85	9.79	22.91	–	–	amount of acrylic acid that remained in the flask as the aqueous solution [2]: 91%; amount of acrylic acid that was co-distilled with the extractant [2]: about 7%
